Data taken from patent publication US9969695B2, “N-substituted imidazole carboxylic ester chiral compound containing an ether side chain, its preparation and application” (WEST CHINA HOSPITAL, SICHUAN UNIVERSITY, priority 2013, dated 2018).
Values joined by “and” are separate entries in the source; they are usually repeats but may differ in a detail not shown here. Identical values can stand only once. Counter-ions that a name gives are not always drawn. Like-named read-outs stand apart in the source and are kept apart here.

Assays:
Format in all cases: in vivo
Male SD rats [1] = experiment: Onset time, last time, palinesthesia time and adverse effects at 2ED50 via the rat tail vein; settings: for Incidence of adverse effect: Anal sphincter dilatation / Incidence of adverse effect: Bucking / Incidence of adverse effect: Hindlimb stiffness / Incidence of adverse effect: Muscle tremor / Incidence of adverse effect: Tic of limbs / Incidence of adverse effect: Vomiting / Onset time: 10 rats per group; for Last time: disappearance to recovery of body-righting reflex; for Palinesthesia tune / Palinesthesia time: recovery to full recovery of body-righting reflex
Description: (§1) Male SD rats (250˜300 g) were used as an experimental animal, and 50% effective dose (ED50) was determined by the sequential method. Three compounds were dissolved in a solvent of DMSO, and etomidate was used as the commercially-available formulation (B BRAUN, Etomidate-Lipuro®, 20 mg/10 mL). Based on the initial dose of 1 mg/kg, other dosages were adjusted as the ratio of 0.8, and the ED50 values of the three compounds and etomidate were determined. Extinction time ≥30 s for the rat body-righting reflex was the positive marker while no disappearance of the righting reflex was considered invalid. Based on the experimental results, four cross-points were formed, and the ED50 values were calculated. […] Then, the respective 2ED50 values of the three compounds and etomidate were taken in an equivalent dose, which were administered via the rat tail vein. The preliminary effects were evaluated in the four rat groups, which were given the three compounds of Formulas (I), (IV), (V) and etomidate, respectively, with 10 rats in each group. […] The last time of the Formula (I) compound and etomidate was 5-6 min, but the last time of the Formulas (IV) and (V) compounds was 10-20 min. […] DMSO had no pharmacological effects, and no adverse effects were observed. The onset time, the last time, and the adverse effects (types, incidence rates) induced by the three compounds and etomidate are shown in the following table:
(§2) Male SD rats (250˜300 g) were used as an experimental animal, and 50% effective dose (ED50) was determined by the sequential method. Hydrochlorides of the three compounds were dissolved in the solvent of normal saline, and etomidate was used as the commercially-available formulation (B BRAUN, Etomidate-Lipuro®, 20 mg/10 mL). The initial dose was 1 mg/kg, and the ratio of dosage variation was 0.8, which was applied in the determination of ED50 values of Formula (I) hydrochloride, Formula (I) hydrobromide, Formula (I) trifluoroacetate, and etomidate. Extinction time (≥30 s) of the rat body-righting reflex was the positive marker while no disappearance of the reflex was considered invalid. Based on the experimental results, four cross-points were formed, and then ED50 values were calculated. […] Then, the respective 2ED50 values of the three compounds and etomidate were taken in an equivalent dose, which were administered via the rat tail vein. The preliminary effects were evaluated in the four rat groups, which were given the three compounds of Formulas (I) hydrochloride, Formula (I) hydrobromide, Formula (I) trifluoroacetate, and etomidate, respectively, with 10 rats in each group. […] Palinesthesia time was in arrange of 5-10 min. During the test period, no significant difference was found in the types and the incidence rates of adverse effects in each group. DMSO had no pharmacological effects, and no adverse effect was found. The onset time, the last time, and the types and the incidence rates of adverse effects induced by the three salt compounds and etomidate are shown in the following table: […]

Male SD rats [2] = experiment: ED50 by the sequential method, extinction of rat body-righting reflex; settings: etomidate as Etomidate-Lipuro, extinction of body-righting reflex ≥30 s; for ED50: Rattus norvegicus, read-out: 50% effective dose (ED50)
Description: as §1, §2

[3] = test system: self-synthesis of adrenocortical hormone; experiment: Increase degree of cortical hormone (cortisol, corticosterone) in blood serum after ACTH stimulation, ELISA; settings: Beagle dogs; for Increase degree of corticosterone / Increase degree of cortisol: 2ED50, dexamethasone baseline, 1 h after ACTH
Description: Male Beagle dogs (10±2 kg) were selected as an experimental animal. After administration, the contents of corticosterone and cortisol in the blood serum of the Beagle dogs were determined by the ELISA kit and the enzyme-labelled instrument. The 20 Beagle dogs were divided into five groups, with four dogs in each group. After respective administration of dexamethasone (0.01 mg/kg), the level of adrenal cortex in the dog body was lowered to the baseline, and those levels of corticosterone and cortisol at this time were used as the base value (baseline). […] After 10 min, ACTH (adrenocortical hormone) was given to stimulate and cause an increased level of cortex in the dog body. One hour after administration of ACTH, both corticosterone and cortisol levels in the blood serum of the Beagle dogs were determined, and the ratio of the peak value to the base value of the cortex levels was calculated. This ratio indicated the increase degree of the cortical hormone. A greater degree indicated a less inhibitory effect of the medicine on the cortical hormone. After administration, compounds of Formulas (I), (IV) and (V), DMSO, and the increase degree of the cortical hormone followed by stimulation of ACTH are shown in the following table:
Male Beagle dogs (10±2 kg) were selected as an experimental animal. After administration, the contents of corticosterone and cortisol in the blood serum of the Beagle dogs were determined by the ELISA kit and the enzyme-labelled instrument. The 20 Beagle dogs were divided into five groups, with four dogs in each group. After respective administration of dexamethasone (0.01 mg/kg), the level of adrenal cortex in the dog body was lowered to the baseline, and the levels of corticosterone and cortisol at this time were used as the baseline. Then, the equivalent doses (2ED50) of the compounds of Formula (I) hydrochloride (3.62 mg/kg), hydrobromide (3.86 mg/kg), trifluoroacetate (4.66 mg/kg), the positive control medicine Etomidate-Lipuro® (0.9 mg/kg), and the equal-volume of solvent DMSO were respectively administrated into the dogs of the five groups. After 10 min, ACTH was given to stimulate and cause the cortex levels increase in the dog body. One hour after administration of ACTH, both the cortical hormone levels were determined, and the ratio of the peak value to the baseline of cortex levels was calculated. This ratio indicated the increase degree of the cortical hormone. A greater degree of increase indicated a less inhibitory effect of the medicine on the cortical hormone. After administrations, the three salts of the Formula (I) compound, DMSO, the increase degree of the cortical hormone followed by stimulation of ACTH are shown in the following table: […]

[4] = Example 10, ratio of peak value to base value
[5] = Example 9, 2ED50 via tail vein, listed as Formula (I) hydrobromide
[6] = Example 11, ratio of peak value to baseline
[7] = Example 9, 2ED50 via tail vein, listed as Formula (I) hydrochloride
[8] = Example 9, 2ED50 via tail vein, listed as Formula (I) trifluoroacetate

Structure (SMILES) | sedative-hypnotic and general anesthetic effects (conclusion in words) (Male SD rats [1]; Example 8) | types and incidence rates of the adverse effects (in words) (Male SD rats [1]; Example 8, 2ED50 via tail vein) | Incidence of adverse effect: Anal sphincter dilatation (Male SD rats [1]; Example 8, 2ED50 via tail vein) | Incidence of adverse effect: Bucking (Male SD rats [1]; Example 8, 2ED50 via tail vein) | Incidence of adverse effect: Hindlimb stiffness (Male SD rats [1]; Example 8, 2ED50 via tail vein) | Incidence of adverse effect: Muscle tremor (Male SD rats [1]; Example 8, 2ED50 via tail vein) | Onset time (Male SD rats [1]; Example 8, 2ED50 via tail vein) | Last time (Male SD rats [1]; Example 8, 2ED50 via tail vein) | Palinesthesia tune (Male SD rats [1]; Example 8, 2ED50 via tail vein) | ED50 (Male SD rats [2]; Example 8, compounds in DMSO) | Increase degree of corticosterone [3, 4] | Increase degree of cortisol [3, 4] | sedative-hypnotic and general anesthetic effects (conclusion in words) (Male SD rats [1]; Example 9) | Incidence of adverse effect: Muscle tremor (Male SD rats [1]; Example 9, 2ED50 via tail vein) | Onset time (Male SD rats [1]; Example 9, 2ED50 via tail vein) | Last time (Male SD rats [1]; Example 9, 2ED50 via tail vein) | Palinesthesia time (Male SD rats [1]; Example 9, 2ED50 via tail vein) | cortical hormone increase after stimulation by ACTH (conclusion in words) ([3]; Example 11) | Increase degree of corticosterone [3, 6] | Increase degree of cortisol [3, 6] | other results
COCCOC(=O)c1cncn1C(C)c1ccccc1 (racemic) [Compound V] | lower potency, elongated onset time, extended last time, and increased types and incidence rates of adverse effects | obviously increased | (2/10), 20%; | Bucking (4/10), 40% | 20%; | 60%; | a little slower action and 1.0 ± 0.6 min | 10.8 ± 3.5 min | 15.1 ± 2.6 min | 10.4 mg/kg | 3.18 ± 1.15 | 5.17 ± 2.28 |  |  |  |  |  |  |  |  | Incidence of adverse effect: Tic of limbs (Male SD rats [1]; Example 8, 2ED50 via tail vein): Tic of limbs (5/10), 50%;; Incidence of adverse effect: Vomiting (Male SD rats [1]; Example 8, 2ED50 via tail vein): Vomiting (5/10), 50%;
COCCOC(=O)c1cncn1[C@@H](C)c1ccccc1 [Compound IV] | lower potency, elongated onset time, extended last time, and increased types and incidence rates of adverse effects | obviously increased | (5/10), 50%; | Bucking (6/10), 60% | 50%; | 100%; | 2.2 ± 0.8 min | 20.3 ± 4.6 min | 21.4 ± 2.3 min | 7.46 mg/kg | 1.19 ± 0.87 | 3.32 ± 2.36 |  |  |  |  |  |  |  |  | Incidence of adverse effect: Tic of limbs (Male SD rats [1]; Example 8, 2ED50 via tail vein): Tic of limbs (7/10), 70%;; Incidence of adverse effect: Vomiting (Male SD rats [1]; Example 8, 2ED50 via tail vein): Vomiting (7/10), 70%;; Onset time (Male SD rats [1]; Example 8, 2ED50 via tail vein, listed as Formula (IV)): a little slower action
COCCOC(=O)c1cncn1[C@H](C)c1ccccc1 [Compound I] | good sedative-hypnotic and general anesthetic effects |  |  |  |  | 70% | Immediate | 5.8 ± 0.9 min | 4.8 ± 1.3 min | 2.1 mg/kg | 11.46 ± 4.30 | 19.88 ± 19.8 |  |  |  |  |  |  |  |  | Onset time (Male SD rats [1]; Example 8, 2ED50 via tail vein, listed as Formula (I) compound): immediate action; inhibition on cortical hormone (conclusion in words) ([3]; Example 10, after stimulation by ACTH): obviously reduced when compared with that of the control medicine etomidate
COCCOC(=O)c1cncn1[C@H](C)c1ccccc1 [Hydrobromide of Formula (I) compound] |  |  |  |  |  |  |  |  |  |  |  |  | good sedative-hypnotic and general anesthetic effects | 50% | Immediate | 4.6 ± 1.1 min | 5.8 ± 1.2 min | lower than that in the blank group of the dogs, but obviously higher than that in the positive medicine etomidate group of the dogs | 12.36 ± 6.65 | 29.14 ± 11.86 | Onset time (Male SD rats [1]; [5]): immediate action; Last time (Male SD rats [1]; [5]): 5 to 6 min; 50% effective dose (ED50) (Male SD rats [2]; Example 9, salts in normal saline, listed as Formula (I) hydrobromide): 3.09 mg/kg
COCCOC(=O)c1cncn1[C@H](C)c1ccccc1 [Hydrochloride of Formula (I) compound] |  |  |  |  |  |  |  |  |  |  |  |  | good sedative-hypnotic and general anesthetic effects | 60% | Immediate | 5.8 ± 0.7 min | 5.6 ± 1.8 min | lower than that in the blank group of the dogs, but obviously higher than that in the positive medicine etomidate group of the dogs | 18.14 ± 5.66 | 25.36 ± 14.77 | Onset time (Male SD rats [1]; [7]): immediate action; Last time (Male SD rats [1]; [7]): 5 to 7 min; ED50 (Male SD rats [2]; Example 9, salts in normal saline): 2.58 mg/kg
COCCOC(=O)c1cncn1[C@H](C)c1ccccc1 [Trifluoroacetate of Formula (I) compound] |  |  |  |  |  |  |  |  |  |  |  |  | good sedative-hypnotic and general anesthetic effects | (5/10), 50% | Immediate | 3.6 ± 1.3 min | 8.2 ± 3.3 min | lower than that in the blank group of the dogs, but obviously higher than that in the positive medicine etomidate group of the dogs | 13.64 ± 4.22 | 26.14 ± 13.89 | Onset time (Male SD rats [1]; [8]): immediate action; Last time (Male SD rats [1]; [8]): 4 to 7 min; 50% effective dose (ED50) (Male SD rats [2]; Example 9, salts in normal saline, listed as Formula (I) trifluoroacetate): 3.61 mg/kg
